Assay results taken from patent US8895273B2, “Conversion of hexuronic acid to hexaric acid” (Teknologian Tutkimuskeskus VTT, priority 2008, dated 2014).

Key:
[1] = molecular target: T1, uronate dehydrogenase from Pseudomonas (GenBank EU377538) (Pseudomonas syringae pv. tomato, UniProt Q888H1); assay: Enzyme activity of uronate dehydrogenase from Pseudomonas expressed in S. cerevisiae; type: biochemical, Pseudomonas syringae pv. tomato str. DC3000; details: yeast extract, with NAD, tested as in Example 2
T1 construct: The open reading frame was released by digestion with NcoI and SpeI; made in house; host or cells: Saccharomyces cerevisiae CEN.PK (crude cell extract)
Protocol: (§1) The S. cerevisiae strain resulting from the Example 1 was then disintegrated by vortexing with glass beads and the yeast extract analysed for D-galacturonic acid dehydrogenase activity. In a control experiment a similar strain but with an empty plasmid was used. To assay the D-galacturonic acid dehydrogenase activity the crude cell extract was mixed with 0.5 mM NAD and 4 mM D-galacturonic acid in a 50 mM Tris pH 7.5 buffer containing 0.5 mM MgCl2. The activity was 0.12 units per mg of extracted protein. One unit is the activity that forms 1 μmol of product per minute. In the control strain no activity could be detected.
The DNA coding for uronate dehydrogenase was custom-synthesised by GENEART. The codes for the same amino acid as the gene with the GenBank accession number EU377538. The DNA sequence is in the Sequence Listing SEQ ID NO: 19. It codes for the amino acid sequence SEQ ID NO:20.
The open reading frame was released by digestion with NcoI and SpeI. The resulting fragment was then ligated to the NcoI and NheI sites of the pYX212 (R&D Systems) which is a multicopy yeast expression vector with PGK1 promoter and URA3 selection marker. The resulting vector was then transfected to the S. cerevisiae strain CEN.PK as in the Example 1. The enzyme activity was then tested as in Example 2.

[2] = molecular target: T2, D-galacturonic acid dehydrogenase (uronate dehydrogenase, EC 1.1.1.203, uro1) (Agrobacterium fabrum, UniProt Q7CRQ0); assay: Michaelis-Menten characterization of the purified histidine-tagged D-galacturonic acid dehydrogenase (uro1); type: biochemical, Agrobacterium tumefaciens; details: for enzyme activity with the substrate: purified histidine-tagged protein
T2 construct: histidine-tag (His6); made in house; host or cells: Saccharomyces cerevisiae CEN.PK; purified on Ni-NTA-agarose
Protocol: as §1
(§2) The D-galacturonic acid dehydrogenase with a histidine-tag at the N-terminal end was produced in a similar manner as in the Example 1, except that the histidine-tag was introduced by PCR. To introduce the histidine tag the following primers were used 5′-[…]-3′ (SEQ ID NO:5) in sense direction and 5′-[…]-3′ (SEQ ID NO:6) in anti-sense.
(§3) After the expression of the histidine-tagged protein in S. cerevisiae as described in the Example 1 the activity was measured as described in the Example 2. […] The histidine-tagged D-galacturonic acid dehydrogenase was then purified using a Ni-NTA-agarose (Qiagen) according to the instructions of the manufacturer. The purified enzyme gave a single band in an SDS PAGE.
(§4) The purified protein was then used to estimate the Michaelis-Menten constants.

[3] = test system: O=C[C@H](O)[C@@H](O)[C@@H](O)[C@H](O)C(=O)O; assay: as above; type: biochemical, Agrobacterium tumefaciens; details: other: purified histidine-tagged enzyme; Michaelis-Menten constant of the substrate/cofactor; pH 7.5
Protocol: as §1, §2, §3, §4

[4] = test system: O=C[C@H](O)[C@@H](O)[C@H](O)[C@H](O)C(=O)O; assay: as above; type: biochemical, Agrobacterium tumefaciens; details: other: purified histidine-tagged enzyme; Michaelis-Menten constant of the substrate/cofactor; pH 7.5
Protocol: as §1, §2, §3, §4

T2 sequence (Q7CRQ0 whole entry, added parts left off): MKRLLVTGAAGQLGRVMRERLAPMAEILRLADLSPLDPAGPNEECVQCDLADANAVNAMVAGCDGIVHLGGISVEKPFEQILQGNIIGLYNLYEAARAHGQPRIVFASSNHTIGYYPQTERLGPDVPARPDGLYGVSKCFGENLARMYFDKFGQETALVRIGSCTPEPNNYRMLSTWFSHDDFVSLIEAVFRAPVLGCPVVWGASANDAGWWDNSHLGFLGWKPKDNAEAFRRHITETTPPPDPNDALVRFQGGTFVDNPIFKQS
T1 sequence (Q888H1 whole entry): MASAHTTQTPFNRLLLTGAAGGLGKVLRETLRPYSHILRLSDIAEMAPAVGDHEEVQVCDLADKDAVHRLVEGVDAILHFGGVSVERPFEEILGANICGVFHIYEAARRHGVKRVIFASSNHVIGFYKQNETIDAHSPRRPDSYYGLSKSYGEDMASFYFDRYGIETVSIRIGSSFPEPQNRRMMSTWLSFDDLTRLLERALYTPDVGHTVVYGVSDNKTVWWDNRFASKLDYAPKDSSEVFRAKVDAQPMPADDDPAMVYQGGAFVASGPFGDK

O=C[C@H](O)[C@@H](O)[C@@H](O)[C@H](O)C(=O)O [D-galacturonic acid]
enzyme activity with the substrate [1]: showed activity
enzyme activity with the substrate [2]: active

O=C[C@H](O)[C@@H](O)[C@H](O)[C@H](O)C(=O)O [GlcUA, D-glucuronic acid]
enzyme activity with the substrate [1]: showed activity
enzyme activity with the substrate [2]: active

NC(=O)c1ccc[n+]([C@@H]2O[C@H](COP(=O)([O-])OP(=O)(O)OC[C@H]3O[C@@H](n4cnc5c(N)ncnc54)[C@H](O)[C@@H]3O)[C@@H](O)[C@H]2O)c1 [NAD]
Km ([2]; purified histidine-tagged enzyme, Michaelis-Menten constant of the substrate/cofactor): 900 µM
Vmax ([2]; purified histidine-tagged enzyme, one unit forms 1 μmol of product per minute): 145 units per mg of protein

D-galacturonic acid dehydrogenase (uronate dehydrogenase, EC 1.1.1.203, uro1) (Agrobacterium fabrum str. C58)
Km [3]: 0.5 mM
Vmax [3]: 124 units per mg of protein
Km [4]: 1.1 mM
Vmax [4]: 221 units per mg of protein
